Test results: patent US4004008A, “O-Tertiary amino-alkyl-N-benzoyl tyrosil amides” (priority 1974, dated 1977)
In brackets after ≈: the same amount, converted by molar mass.

Experiments:
[1] = system: cavy ileum (histamine spasm); test: Antispastic activity in vitro on cavy ileum, spasmiser histamine; type: cell-based; settings: Table 2; ED50 ratio
Protocol: (§1) C. The method in vitro is that of Magnus, with the ileum of the cavy, and is in common use for all evaluations. It consists of extracting the ileum from the cavy and placing it in a receptacle which contains nutritive liquid, suitably oxygenated, and registering the movements of the organ which remains alive for several hours if maintained at a temperature of 37°. According to the traditional method followed by us, BaCl2 is put into the bath as a spasmisant: the reaction is a violent contraction of the organ. This contraction can be prevented by adding beforehand pharmaceuticals which inhibit spasms, and in this case our compounds.
(§2) The activities which have been described so far both in vitro and in vivo can be confirmed using different animals or different organs. These activities are further improved if, instead of BaCl2 other spasmisers are used, such as serotoninehistamine and oxytocine (see Table 2).
(§3) The values contained in the table are expressed as comparison between the
(§4) substance being studied, and they therefore express the activity of the
(§5) compounds compared with known, very active substances.

[2] = system: bile ducts (sphincter of Oddi); test: Perfusion outflow of bile ducts (bile duct spasm by morphine); type: in vivo; settings: i.v.; CR 605 5, CR 725 10, CR 603 12.5 mg/kg; morphine 250 μg
Description: (§8) The results shown in this table were obtained by perfusing with a physiological solution, the stomach and the bile ducts respectively and collecting the liquid emerging after the pylorus and the sphineter of Oddi.

stomach and pylorus = test: Perfusion outflow of stomach and pylorus (gastro-pyloric spasm by morphine); type: in vivo; settings: i.v.; CR 605 5, CR 725 10, CR 603 12.5 mg/kg; morphine 250 μg
Description: as §8

[3] = system: rat uterus (oxytocine spasm); test: Antispastic activity in vitro on rat uterus, spasmiser oxytocine; type: cell-based; settings: Table 2; ED50 ratio
Description: as §2, §3, §4, §5

[4] = system: intestinal transit of the charcoal; test: Vegetable carbon (charcoal) intestinal transit test in vivo; set-up: species or system rat; settings: for ED50: Rattus norvegicus, iv, 2 h, read-out: Antisp. activity in transit test: ED50; for ED50 / Antisp. activity in transit test: ED50: i.v., rat, charcoal test, 2 hours
Protocol: B. The vegetable carbon method in vivo (charcoal method) which consists of administering by oral means to rats, which have fasted for 24 hours, 0.3ml/per rate of a mixture consisting of: 10g of charcoal and 5 g of gum arabic suspended in a volume of 100 cc of H2 O as well as at the same time the substance being studied, accordingly as desired, generally i.v., s.c., oral. After two hours the animals are killed and those are taken to be negative in which the charcoal has reached the first portion of the colon and the others positive, in the sense that the substance administered has slowed down the intestinal transit of the charcoal.
In effect the animals treated with a physiological solution (checks) are all negative after two hours.
D. I.T.1 is the therapeutic index under the profile of the antispastic activity in vivo, and it is obtained by recording the DL50 (column 2) with the ED50 of the charcoal test (column 3).

urinary bladder of a rat = test: Urinary bladder movement of anaesthetised rat in vivo; settings: for ED50: read-out: Urinary sac of rat in vivo ED50; for activity in the urinary tract tests: statement on the bladder and ureter tests of Table 3
Description: The in vivo evaluation was made upon the urinary bladder of a rat anaesthetised and placed in an environment heated to the animals body temperature whilst the bladder which is exposed is linked to a system which registers its movement. The pharmaceutilcals were given to the animals by intravenous means.

rat's ureter = test: Ureter of rat in vitro; type: cell-based; settings: for IC50: Rattus norvegicus, read-out: Ureter of rat in vitro ED50
Description: The in vitro evaluation was made on a rat's ureter suspended in a bath of physiological liquid according to a method similar to the Magnus method already described.

[5] = system: cavy ileum (serotonine spasm); test: Antispastic activity in vitro on cavy ileum, spasmiser serotonine; type: cell-based; settings: Table 2; ED50 ratio
Protocol: as §1, §2, §3, §4, §5

[6] = system: ileum of a cavy (BaCl2 spasm); test: Antispastic activity in vitro, Magnus method, cavy ileum stimulated with BaCl2; type: cell-based; settings: for Antispastic activity in vitro, cavy ileum, BaCl2 (relative to papaverine = 1): Table 2, ED50 of test substance papaverine / ED50 of compound; for Antisp. activity in vitro on the ileum of a cavy by Stim. BaCl2: ED50 pap./ED50 CR: ratio to papaverine = 1, Table 1, 37°
Protocol: as §1
The values recorded are expressed as relation between papaverine and the ED50 of our compounds. (As is known, the ED50 is the dose which results in a 50% reduction in spastic contraction).
E. I.T.2 is the therapeutic index under the profile of the antispastic activity in vitro and is given by the product between the in vitro antispastic activity index (column 4) and the corresponding DL50 (column 2).

[7] = Acute toxicity (DL50) i.v. in rat; type: in vivo; settings: in vivo, iv, dose causing death in 50% of the animals
Protocol: (§6) In this table (n. 1) there are recorded the compounds described in the examples with their relative serial numbers, the acute toxicity, the antispastic activity observed in two experimental tests, one "in vivo" and one "in vitro". There are moreover recorded two therapeutic indices which take account of the toxicity of these compounds in relation to their in vivo and in vitro activity. More precisely:
(§7) A. DL50 which, as is known, is the quantity of the substance expressed in mg/kg of animal weight, capable of causing death in 50% of the animals treated.

[8] = system: caudal artery of a rat (electric stimulation); test: Antispastic activity on caudal artery of rat, electrically stimulated; type: cell-based; settings: 50% reduction of response to electric stimulation
Protocol: In another experiment the caudal artery of a rat was electrically stimulated and the pharmaceuticals were added to the bath. The activity was assessed at ED50, i.e., the quantity of pharmaceutical expressed in μg/ml of the perfusion liquid able to reduce by half the response of the electric stimulation compared with that of the checks.
Antispastic activity of some of the compounds claimed on the caudal artery of a rat, electrically stimulated: the values are expressed in ED50 (see Specification).

[9] = system: caudal artery of a rat (ergotamine tartrate contraction); test: Antispastic activity on caudal artery of rat stimulated with ergotamine tartrate; type: cell-based; settings: ergotamine tartrate 350 μg/ml of perfusion liquid, 50% reduction of contraction
Protocol: An in vitro evaluation of this activity was made upon the caudal artery of a rat, suspended, so that one can register the variation of internal pressure, and contracted with ergotamine tartrate put in to the arterial lumen of the said vessel with a dose of 350 μg/ml of perfusion liquid.
The spasm was antagonised with the compounds being tested. The evaluation was made with ED50, i.e., a concentration of the product in the perfusion liquid expressed as μg/ml able to reduce the contraction thus induced by 50%.
Antispastic activity of some of the claimed compounds upon the caudal artery of a rat stimulated with ergotamine tartrate: values are expressed in ED50 (see specification).

rat = test: Acute toxicity (DL50) i.v. in rat; type: in vivo; settings: dose causing death in 50% of the animals
Protocol: as §6, §7

| Compound | Antispastic activity in vitro, cavy ileum, histamine (relative to prometazine = 1) [1] | Antispastic activity in vitro, rat uterus, oxytocine (relative to papaverine = 1) [3] | ED50 [4] | ED50 (urinary bladder of a rat; intravenous, anaesthetised rat) | IC50 (rat's ureter) | Antispastic activity in vitro, cavy ileum, serotonine (relative to methysergide = 1) [5] | Antispastic activity in vitro, cavy ileum, BaCl2 (relative to papaverine = 1) [6] | Antisp. activity in vitro on the ileum of a cavy by Stim. BaCl2: ED50 pap./ED50 CR [6] | LD50 [7] | DL50 in a rat (rat) | further results |
| --- | --- | --- | --- | --- | --- | --- | --- | --- | --- | --- | --- |
| CCCN(CCC)C(=O)C(Cc1ccc(OCCN(CC)CC)cc1)NC(=O)c1ccccc1 (racemic) [CR 605, O-(2-diethylamino-ethyl)-N-benzoyl-DL-tyrosil-di-n-propylamide] | 0.17 | 0.09 | 10.6 mg/kg | 6.25 mg/kg | 74.2 µg/mL (≈ 159 µM) | 0.69 | 1.25 | 1.25 | 33.9 mg/kg |  | Bile ducts, %age variation between the 1st and 2nd hour [2]: +21.5%; Bile ducts, outflow after the 1st hour [2]: 46.6 mL; Bile ducts, outflow after the 2nd hour [2]: 56.6 mL; Stomach and pylorus, outflow after the 1st hour (stomach and pylorus): 131.2 mL; Stomach and pylorus, outflow after the 2nd hour (stomach and pylorus): 132.9 mL |
| CCCCNC(=O)C(Cc1ccc(OCCN2CCCC2)cc1)NC(=O)c1ccc(C)cc1 (racemic) [CR 651, O-(2-pyrrolidil-N'-ethyl)-N-toluoyl-DL-tyrosil-n-butylamide] |  |  |  |  |  |  |  | 1.60 |  | 34.1 mg/kg | ED50, caudal artery, electrically stimulated [8]: 19 µg/mL (≈ 42.1 µM); Antisp. activity in transit test: ED50 [4]: 16.3 mg/kg; ED50, caudal artery, ergotamine tartrate [9]: 37 µg/mL (≈ 81.9 µM) |
| CCCN(CCC)C(=O)C(Cc1ccc(OCCN(CC)CC)cc1)NC(=O)c1ccc(Cl)cc1 (racemic) [CR 716, O-(2-diethylamino-ethyl)-N-(p-chloro-benzoyl)-DL-tyrosil-di-n-propylamide] | 0.08 | 0.06 | 26.5 mg/kg |  |  | 0.74 | 1.58 | 1.58 | 56.4 mg/kg |  |  |
| CCCN(CCC)C(=O)C(Cc1ccc(OCCCN2CCN(C)CC2)cc1)NC(=O)c1ccc(Cl)cc1 (racemic) [CR 725, O-[3-(N"-methyl-piperazine)-N'-propyl]-N-(p-chloro-benzoyl)-DL-tyrosil-di-n-propylamide] | 0.24 | 0.18 | 12.2 mg/kg | 8.32 mg/kg | 27.3 µg/mL (≈ 50.3 µM) | 1.2 | 3.20 | 3.20 | 62.6 mg/kg |  | Bile ducts, outflow after the 1st hour [2]: 49.7 mL; Bile ducts, outflow after the 2nd hour [2]: 53.2 mL; Stomach and pylorus, outflow after the 1st hour (stomach and pylorus): 167.2 mL; Stomach and pylorus, outflow after the 2nd hour (stomach and pylorus): 165.5 mL |
| CCCN(CCC)C(=O)C(Cc1ccc(OCCCN(C)C)cc1)NC(=O)c1ccccc1 (racemic) [CR 816, O-(3-dimethylamino-propyl)-N-benzoyl-DL-tyrosil-di-n-propylamide] |  |  |  |  |  |  |  | 2.00 |  | 16.0 mg/kg | ED50, caudal artery, electrically stimulated [8]: 7 µg/mL (≈ 15.4 µM); Antisp. activity in transit test: ED50 ([4]; 120 min): 5.5 mg/kg; ED50, caudal artery, ergotamine tartrate [9]: 12 µg/mL (≈ 26.5 µM) |
| CCCCCCNC(=O)C(Cc1ccc(OCCN2CCCC2)cc1)NC(=O)c1ccc(C)cc1 (racemic) [CR 826, 0-(2-pyrrolidil-N'-ethyl)-N-toluoyl-DL-tyrosil-n-hexylamide] |  |  |  |  |  |  |  | 1.2 |  | 41 mg/kg | Antisp. activity in transit test: ED50 [4]: 17.0 mg/kg |
| CN1[C@@H]2CC[C@H]1C[C@@H](OC(=O)C(CO)c1ccccc1)C2 (some centres unmarked) [Atropine, atropine, reference compound] |  |  |  |  |  |  |  |  |  |  | activity in the urinary tract tests (urinary bladder of a rat): inactive; Ureter of rat in vitro ED50 (rat's ureter): inactive |
| CCCN(CCC)C(=O)C(Cc1ccc(OCCN(C)C)cc1)NC(=O)OCc1ccccc1 [CR 603, O-(2-dimethylamino-ethyl)-N-carbobenzoxy-L-tyrosil-di-n-propylamide] | 0.09 | 0.008 | 30.5 mg/kg | 6.9 mg/kg | 86 µg/mL (≈ 183 µM) | 0.87 | 2.4 | 2.40 | 63 mg/kg |  | IC50 ([8]; Rattus norvegicus, read-out: ED50, caudal artery, electrically stimulated): 76 µg/mL (≈ 162 µM); Bile ducts, outflow after the 1st hour [2]: 50.3 mL; Bile ducts, outflow after the 2nd hour [2]: 48.8 mL; Stomach and pylorus, outflow after the 1st hour (stomach and pylorus): 157.0 mL; Stomach and pylorus, outflow after the 2nd hour (stomach and pylorus): 160.8 mL; IC50 ([9]; Rattus norvegicus, read-out: ED50, caudal artery, ergotamine tartrate): 105 µg/mL (≈ 224 µM) |
| CCCN(CCC)C(=O)C(Cc1ccc(OCCN(CC)CC)cc1)NC(=O)OCc1ccccc1 [CR 627, O-(2-diethylamino-ethyl)-N-carbobenzoxy-D-tyrosil-di-n-propylamide] |  |  |  |  |  |  |  | 1.44 |  | 34.0 mg/kg | Antisp. activity in transit test: ED50 ([4]; 120 min): 20.8 mg/kg |
| CCCC[N+]1(C)C2CC(OC(=O)C(CO)c3ccccc3)CC1C1OC12 (centres unmarked) [Joscina-N-butyl-bromide] |  |  |  |  |  |  |  |  |  |  | Urinary sac of rat in vivo ED50 (urinary bladder of a rat; intravenous, anaesthetised rat): inactive; activity in the urinary tract tests (urinary bladder of a rat): inactive |
| CN1CC[C@]23c4c5ccc(O)c4O[C@H]2[C@@H](O)C=C[C@H]3[C@H]1C5 [Morphine, morphine, reference compound] |  |  |  |  |  |  |  |  |  |  | Bile ducts, %age variation between the 1st and 2nd hour [2]: -48.3%; Stomach and pylorus, %age variation between 1st and 2nd hour (stomach and pylorus): -54.5% |
| COc1ccc(Cc2nccc3cc(OC)c(OC)cc23)cc1OC [Papaverine, papaverine, reference compound] |  |  | 22.5 mg/kg | 7.59 mg/kg | 45.2 µg/mL (≈ 133 µM) |  |  | 1 | 27.2 mg/kg |  | I.T.1: DL50/ED50 in vivo ([4]; therapeutic index, DL50 / charcoal ED50, rat i.v.): 1.2 |
| O-(3-pyrrolidil-N'-propyl)-N-toluoyl-DL-tyrosil-n-butylamide [CR 797] |  |  |  |  |  |  |  | 1.32 |  | 20.6 mg/kg | Antisp. activity in transit test: ED50 [4]: 12.0 mg/kg |
